Patent US20250025438A1, “Derivative of aspartic acid and use thereof in treatment of metabolic diseases such as hepatic fibrosis and non-alcoholic hepatitis” (SHENZHEN JINGTAI TECHNOLOGY CO., LTD., priority 2021, published 2025)
Where a name gives a salt, the structure may show the parent alone.

Columns and labels:
[1] = test system: NS3TP1; experiment: NS3TP1 expression in liver tissue of CCl4 liver fibrosis mice; type: in vivo, C57BL/6 wild-type mice; conditions: CCl4-induced mice, different doses by gavage, vs untreated group, FIG. 5
Method: Long-term intraperitoneal injection of carbon tetrachloride (CCl4) induced reversible liver fibrosis, which was often used to screen and evaluate anti-hepatic fibrosis drugs. C57BL/6 wild-type mice were randomly divided into control group, carbon tetrachloride group and treatment group. The treatments were as follows:
Mice in the carbon tetrachloride group: The animals were intraperitoneally injected with carbon tetrachloride in a total amount of 0.5 μL/g, diluted with corn oil to 10 μL/g, 3 times/week. […]

[2] = test system: NAFLD induced by HFD; experiment: Mouse NAFLD model induced by HFD, H&E staining; type: in vivo, C57BL/6J male mice; conditions: HFD diet mice, 10, 50, 150 mg/kg by gavage bid, 8 weeks, vs untreated group, FIG. 9
Method: (§1) • (1) C57BL/6J male mice aged 6 to 8 weeks were selected and randomly divided into normal diet group (n=10) and HFD or CHOL group; the weight changes of the mice were recorded during the modeling period, and the modeling was conducted for 8 weeks (CHOL) or 10 weeks (HFD), then the mice in the HFD or CHOL group were randomly divided into groups according to their body weights, plus the negative control group, a total of 5 groups:
(§2) (2) Mice in the negative control group (n=10): The animals were fed with normal diet, and 200 μL of drinking water was administered by gavage, bid.
(§3) Mice in HFD or CHOL group (n=10): The animals were fed with HFD or CHOL diet, and 200 μL of normal saline was administered by gavage at the same time, bid. (Note: HFD (60% high fat) feed (Whitby Technology Development (Beijing) Co., Ltd.) (D12492), CHOL (40% high fat +1.25% cholesterol) feed (Whitby Technology Development (Beijing) Co., Ltd.) (D12108C)) (3) Mice in Compound 6-low dose group (n=10): The animals were fed with HFD or CHOL diet, and administrated simultaneously with Compound 6 at a dose of 10 mg/kg by gavage, bid.
(§4) (4) Mice in Compound 6-middle dose group (n=10): The animals were fed with HFD or CHOL diet, and administrated simultaneously with Compound 6 at a dose of 50 mg/kg by gavage, bid. […]

[3] = test system: NAFLD induced by CHOL; experiment: Mouse NAFLD model induced by CHOL, H&E staining; type: in vivo, C57BL/6J male mice; conditions: CHOL diet mice, 10, 50, 150 mg/kg by gavage bid, 8 weeks, vs untreated group, FIG. 10
Method: as §1, §2, §3, §4

[4] = test system: collagen I; experiment: Activated LX2 cells (TGFβ1), Western blot: Collagen I; type: cell-based; conditions: LX2 cells stimulated with TGFβ1 (5 ng/mL), 24 hours, FIG. 4
[5] = test system: α-SMA; experiment: Activated LX2 cells (TGFβ1), Western blot: α-SMA; type: cell-based; conditions: LX2 cells stimulated with TGFβ1 (5 ng/mL), 24 hours, FIG. 4

SMILES | expression of NS3TP1 in the liver tissue of mice [1] | lipid droplet aggregation in the liver tissue of mice (H&E) [2] | lipid droplet aggregation in the liver tissue of mice (H&E) [3] | expression of Collagen I in the cells [4] | expression of α-SMA in the cells [5]
COC(=O)C[C@H](N)C(=O)O [Compound 6] | gradually increased in a dose-dependent manner | reduced in a dose-dependent manner | reduced in a dose-dependent manner |  | 
COC(=O)C[C@H](N)C(=O)OCOC(=O)[C@@H](N)CC(=O)OC [Compound 54, 4-dimethyl O′1,01-methylene (2S,2'S)-bis (2-aminosuccinate) hydrochloride] |  |  |  | significantly decreased | significantly decreased
